Here are results for 29 molecules from US10227357B2, “Compounds and methods for kinase modulation, and indications therefor” (Plexxikon Inc., priority 2012, dated 2019).

A word on the IC50: it is the point on the concentration scale where inhibition reaches its midpoint.

For one experiment, the target named is T1, c-kit kinase (Homo sapiens, UniProt P10721).
T1 construct: The c-kit (or kinase domain thereof) is an active kinase in AlphaScreen; poly-Histidine tag (in-house protein only) (cleaved yes); host or cells: E. coli BL21(DE3)RIL, co-expressed with PTP1B
Put plainly: c-Kit biochemical assay, AlphaScreen, 10 μM ATP. The following applies: c-kit biochemical inhibitory activity; read-out: Biochemical activity (IC50 μM) Kit. An outline of the steps: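 His-tagged c-Kit expressed in E. coli with co-expressed PTP1B (dephosphorylated), tag removed; 0.1 ng per reaction with biotinylated-peptide substrate in 50 mM HEPES pH 7.2, 5 mM MgCl2, 5 mM MnCl2, 5% DMSO, 10 μM ATP, 1 h at room temperature. Phosphorylation detected by AlphaScreen (streptavidin donor, PY20 acceptor beads); IC50 from 8-point 1:3 dilution series.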
On the technique in general: Alpha assays give light when donor and acceptor beads are brought close together.

A further experiment concerns the target T2, c-kit mutant D816V (Homo sapiens, UniProt P10721, D816V/DEL694-753).
T2 construct: residues 551-934, kinase insertion domain residues 694-753 deleted; 6x-histidine (N); made in house; host or cells: E. coli Arctic Express (DE3) RIL (Stratagene)
Put plainly: c-Kit mutant D816V biochemical assay, AlphaScreen. Conditions: c-kit D816V biochemical inhibitory activity; read-out: Biochemical activity (IC50 μM) Kit D816V. The procedure, abridged:
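Purified His-tagged c-Kit D816V (E. coli-expressed) assayed in 25 mM HEPES pH 7.2 with Mg/Mn, 5% DMSO and 10 μM ATP, 30 min at room temperature, 8-point 1:3 dilutions. Phosphorylation detected by AlphaScreen with streptavidin donor and PY20 acceptor beads; IC50 from signal versus concentration.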

T2 sequence (P10721 with tags, fused parts or gaps DEL694-753/D816V): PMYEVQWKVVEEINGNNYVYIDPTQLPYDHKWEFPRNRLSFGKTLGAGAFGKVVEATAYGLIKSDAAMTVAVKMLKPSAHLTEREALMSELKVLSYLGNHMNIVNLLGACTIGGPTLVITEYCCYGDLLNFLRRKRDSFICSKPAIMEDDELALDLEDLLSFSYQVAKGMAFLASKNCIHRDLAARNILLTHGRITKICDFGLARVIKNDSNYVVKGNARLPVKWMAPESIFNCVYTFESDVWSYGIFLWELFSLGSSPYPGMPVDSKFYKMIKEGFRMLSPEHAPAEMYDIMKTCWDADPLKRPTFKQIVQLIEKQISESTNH
T1 sequence (P10721 26-976): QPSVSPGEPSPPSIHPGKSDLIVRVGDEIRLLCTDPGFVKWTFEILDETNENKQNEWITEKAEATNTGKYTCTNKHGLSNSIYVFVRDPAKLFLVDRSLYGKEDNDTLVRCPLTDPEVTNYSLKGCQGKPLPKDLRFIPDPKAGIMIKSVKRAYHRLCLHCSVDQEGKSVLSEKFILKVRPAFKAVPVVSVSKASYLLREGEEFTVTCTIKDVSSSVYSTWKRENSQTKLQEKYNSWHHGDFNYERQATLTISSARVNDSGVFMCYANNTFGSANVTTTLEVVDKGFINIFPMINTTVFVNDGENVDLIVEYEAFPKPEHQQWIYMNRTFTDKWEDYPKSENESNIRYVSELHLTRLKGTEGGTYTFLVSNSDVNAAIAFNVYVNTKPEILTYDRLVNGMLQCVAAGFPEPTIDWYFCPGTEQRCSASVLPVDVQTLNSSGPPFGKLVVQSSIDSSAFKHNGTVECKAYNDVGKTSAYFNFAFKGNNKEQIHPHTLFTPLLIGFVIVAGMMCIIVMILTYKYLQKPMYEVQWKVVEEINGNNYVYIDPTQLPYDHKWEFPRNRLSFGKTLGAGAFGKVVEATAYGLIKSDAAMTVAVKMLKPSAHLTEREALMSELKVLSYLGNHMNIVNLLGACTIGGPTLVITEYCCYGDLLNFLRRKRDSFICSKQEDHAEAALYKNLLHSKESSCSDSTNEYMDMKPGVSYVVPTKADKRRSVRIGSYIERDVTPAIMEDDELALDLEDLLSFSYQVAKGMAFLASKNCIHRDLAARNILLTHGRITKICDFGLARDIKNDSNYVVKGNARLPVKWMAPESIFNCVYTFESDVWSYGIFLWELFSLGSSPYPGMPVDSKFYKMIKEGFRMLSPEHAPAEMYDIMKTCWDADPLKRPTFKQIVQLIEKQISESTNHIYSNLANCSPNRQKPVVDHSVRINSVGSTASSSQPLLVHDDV

Turning to `O=S(=O)(Nc1ccc(-c2cc3c(-c4ccc(NS(=O)(=O)C5CC5)cc4F)ncnc3[nH]2)c(F)c1)C1CC1` [P-0387, N-[4-[4-[4-(cyclopropylsulfonylamino)-2-fluoro-phenyl]-7H-pyrrolo[2,3-d]pyrimidin-6-yl]-3-fluoro-phenyl]cyclopropanesulfonamide], the figures for the IC50 on c-kit kinase and on c-kit mutant D816V were 1 to 10 µM and 0.0001 to 1 µM, respectively.
The corresponding values for `CCCCS(=O)(=O)Nc1ccc(-c2cc3c(-c4ccc(NS(=O)(=O)CCCC)cc4)ncnc3[nH]2)cc1` [P-0388, N-[4-[4-[4-(butylsulfonylamino)phenyl]-7H-pyrrolo[2,3-d]pyrimidin-6-yl]phenyl]butane-1-sulfonamide] are 10 to 200 µM and 0.0001 to 1 µM.
The corresponding values for `O=S(=O)(Nc1ccc(-c2cc3c(-c4ccc(NS(=O)(=O)C5CC5)cc4)ncnc3[nH]2)cc1)C1CC1` [P-0389, N-[4-[4-[4-(cyclopropylsulfonylamino)phenyl]-7H-pyrrolo[2,3-d]pyrimidin-6-yl]phenyl]cyclopropanesulfonamide] are 1 to 10 µM and 0.0001 to 1 µM.
The like results for `Cc1ccc(S(=O)(=O)Nc2ccc(-c3ncnc4[nH]c(C)cc34)cc2)cc1` [P-0390, 4-methyl-N-[4-(6-methyl-7H-pyrrolo[2,3-d]pyrimidin-4-yl)phenyl]benzenesulfonamide] were, in that order, 1 to 10 µM and 0.0001 to 1 µM.
`O=S(=O)(Nc1ccc(-c2ncnc3[nH]c(-c4ccc(F)cc4)cc23)c(F)c1)c1ccc(Cl)cc1` [P-0396, 4-chloro-N-[3-fluoro-4-[6-(4-fluorophenyl)-7H-pyrrolo[2,3-d]pyrimidin-4-yl]phenyl]benzenesulfonamide]: the 50% inhibitory concentration (IC50) on c-kit kinase was in the range of 10 to 200 µM; on c-kit mutant D816V, 0.0001 to 1 µM.
The corresponding values for `CCCS(=O)(=O)Nc1ccc(-c2ncnc3[nH]c(-c4ccc(F)cc4)cc23)c(F)c1` [P-0397, N-[3-fluoro-4-[6-(4-fluorophenyl)-7H-pyrrolo[2,3-d]pyrimidin-4-yl]phenyl]propane-1-sulfonamide] are 1 to 10 µM and 0.0001 to 1 µM.
The like results for `CS(=O)(=O)Nc1ccc(-c2ncnc3[nH]c(-c4ccc(F)cc4)cc23)c(F)c1` [P-0398, N-[3-fluoro-4-[6-(4-fluorophenyl)-7H-pyrrolo[2,3-d]pyrimidin-4-yl]phenyl]methanesulfonamide] were, in that order, 0.0001 to 1 µM and 0.0001 to 1 µM.
The corresponding values for `CS(=O)(=O)Nc1ccc(-c2ncnc3[nH]c(-c4ccc(F)cc4)cc23)cc1F` [P-0399, N-[2-fluoro-4-[6-(4-fluorophenyl)-7H-pyrrolo[2,3-d]pyrimidin-4-yl]phenyl]methanesulfonamide] are 0.0001 to 1 µM and 0.0001 to 1 µM.
For `O=S(=O)(Nc1ccc(-c2ncnc3[nH]c(-c4ccc(F)cc4)cc23)c(F)c1)C1CC1` [P-0401, N-[3-fluoro-4-[6-(4-fluorophenyl)-7H-pyrrolo[2,3-d]pyrimidin-4-yl]phenyl]cyclopropanesulfonamide], the results for the IC50 on c-kit kinase and at c-kit mutant D816V were 10 to 200 µM and 0.0001 to 1 µM, respectively.
The like results for `COc1ccc(S(=O)(=O)Nc2ccc(-c3ncnc4[nH]c(-c5ccc(F)cc5)cc34)c(F)c2)cc1` [P-0402, N-[3-fluoro-4-[6-(4-fluorophenyl)-7H-pyrrolo[2,3-d]pyrimidin-4-yl]phenyl]-4-methoxy-benzenesulfonamide] were, in that order, 1 to 10 µM and 0.0001 to 1 µM.
The corresponding values for `CCCS(=O)(=O)Nc1ccc(-c2ncnc3[nH]c(-c4ccc(F)cc4)cc23)cc1F` [P-0403, N-[2-fluoro-4-[6-(4-fluorophenyl)-7H-pyrrolo[2,3-d]pyrimidin-4-yl]phenyl]propane-1-sulfonamide] are 0.0001 to 1 µM and 0.0001 to 1 µM.
The corresponding values for `O=S(=O)(Nc1ccc(-c2ncnc3[nH]c(-c4ccc(F)cc4)cc23)cc1)c1ccc(F)cc1` [P-0404, 4-fluoro-N-[4-[6-(4-fluorophenyl)-7H-pyrrolo[2,3-d]pyrimidin-4-yl]phenyl]benzenesulfonamide] are 0.0001 to 1 µM and 0.0001 to 1 µM.
For `CCS(=O)(=O)Nc1cccc(-c2ncnc3[nH]c(-c4ccc(F)cc4)cc23)c1` [P-0407, N-[3-[6-(4-fluorophenyl)-7H-pyrrolo[2,3-d]pyrimidin-4-yl]phenyl]ethanesulfonamide], the IC50 on c-kit kinase and on c-kit mutant D816V was 1 to 10 µM throughout.
Consider `O=S(=O)(Nc1ccc(-c2ncnc3[nH]c(-c4ccc(F)cc4)cc23)cc1F)c1ccc(F)cc1` [P-0408, 4-fluoro-N-[2-fluoro-4-[6-(4-fluorophenyl)-7H-pyrrolo[2,3-d]pyrimidin-4-yl]phenyl]benzenesulfonamide], for which the values for the IC50 at c-kit kinase and at c-kit mutant D816V were 10 to 200 µM and 1 to 10 µM, respectively.
The like results for `COc1ccc(S(=O)(=O)Nc2ccc(-c3ncnc4[nH]c(-c5ccc(F)cc5)cc34)cc2F)cc1` [P-0409, N-[2-fluoro-4-[6-(4-fluorophenyl)-7H-pyrrolo[2,3-d]pyrimidin-4-yl]phenyl]-4-methoxy-benzenesulfonamide] were, in that order, 10 to 200 µM and 1 to 10 µM.
On to `O=S(=O)(Nc1ccc(-c2ncnc3[nH]c(-c4ccc(F)cc4)cc23)cc1F)C1CC1` [P-0410, N-[2-fluoro-4-[6-(4-fluorophenyl)-7H-pyrrolo[2,3-d]pyrimidin-4-yl]phenyl]cyclopropanesulfonamide], for which the IC50 fell in the range of 1 to 10 µM on c-kit kinase and 0.0001 to 1 µM on c-kit mutant D816V.
The like results for `O=S(=O)(Nc1cccc(-c2ncnc3[nH]c(-c4ccc(F)cc4)cc23)c1)C1CC1` [P-0413, N-[3-[6-(4-fluorophenyl)-7H-pyrrolo[2,3-d]pyrimidin-4-yl]phenyl]cyclopropanesulfonamide] were, in that order, 1 to 10 µM and 1 to 10 µM.
For `CS(=O)(=O)Nc1cccc(-c2ncnc3[nH]c(-c4ccc(F)cc4)cc23)c1` [P-0414, N-[3-[6-(4-fluorophenyl)-7H-pyrrolo[2,3-d]pyrimidin-4-yl]phenyl]methanesulfonamide], the IC50 at c-kit kinase and at c-kit mutant D816V was 1 to 10 µM in each case.
On to `Fc1ccc(-c2cc3c(-c4ccc(NCc5ccc(C(F)(F)F)nc5)nc4)ncnc3[nH]2)cc1` [P-0415, 5-[6-(4-fluorophenyl)-7H-pyrrolo[2,3-d]pyrimidin-4-yl]-N-[[6-(trifluoromethyl)-3-pyridyl]methyl]pyridin-2-amine], for which the concentration for half-maximal inhibition (IC50) at c-kit kinase was 0.0001 to 1 µM; on c-kit mutant D816V, 1 to 10 µM.
On to `Nc1ccc(-c2ncnc3[nH]c(-c4ccc(F)cc4)cc23)cc1` [P-0416, 4-[6-(4-fluorophenyl)-7H-pyrrolo[2,3-d]pyrimidin-4-yl]aniline], for which the IC50 at c-kit kinase and on c-kit mutant D816V was 0.0001 to 1 µM throughout.
In the case of `NS(=O)(=O)c1ccc(-c2ncnc3[nH]c(-c4ccc(F)cc4)cc23)cc1` [P-0418, 4-[6-(4-fluorophenyl)-7H-pyrrolo[2,3-d]pyrimidin-4-yl]benzenesulfonamide], the IC50 lay in the range of 1 to 10 µM on c-kit kinase and 0.0001 to 1 µM at c-kit mutant D816V.
Consider `CCCCS(=O)(=O)Nc1ccc(-c2ncnc3[nH]c(-c4ccc(F)cc4)cc23)cc1` [P-0419, N-[4-[6-(4-fluorophenyl)-7H-pyrrolo[2,3-d]pyrimidin-4-yl]phenyl]butane-1-sulfonamide], for which the IC50 lay in the range of 10 to 200 µM at c-kit kinase and 0.0001 to 1 µM on c-kit mutant D816V.
The like results for `O=S(=O)(Nc1ccc(-c2ncnc3[nH]c(-c4ccc(F)cc4)cc23)cc1)C1CC1` [P-0420, N-[4-[6-(4-fluorophenyl)-7H-pyrrolo[2,3-d]pyrimidin-4-yl]phenyl]cyclopropanesulfonamide] were, in that order, 10 to 200 µM and 0.0001 to 1 µM.
Take `COc1ccc(CNS(=O)(=O)c2ccc(-c3ncnc4[nH]c(-c5ccc(F)cc5)cc34)cc2)cc1` [P-0423, 4-[6-(4-fluorophenyl)-7H-pyrrolo[2,3-d]pyrimidin-4-yl]-N-[(4-methoxyphenyl)methyl]benzenesulfonamide]: the IC50 at c-kit kinase and at c-kit mutant D816V was 10 to 200 µM throughout.
Turning to `Cc1ccc(NS(=O)(=O)c2ccc(-c3ncnc4[nH]c(-c5ccc(F)cc5)cc34)cc2)cc1` [P-0426, 4-[6-(4-fluorophenyl)-7H-pyrrolo[2,3-d]pyrimidin-4-yl]-N-(p-tolyl)benzenesulfonamide], the IC50 was in the range of 10 to 200 µM at c-kit kinase and 1 to 10 µM on c-kit mutant D816V.
The like results for `O=S(=O)(NC1CC1)c1cccc(-c2ncnc3[nH]c(-c4ccc(F)cc4)cc23)c1` [P-0429, N-cyclopropyl-3-[6-(4-fluorophenyl)-7H-pyrrolo[2,3-d]pyrimidin-4-yl]benzenesulfonamide] were, in that order, 0.0001 to 1 µM and 0.0001 to 1 µM.
The like results for `CNS(=O)(=O)c1ccc(-c2ncnc3[nH]c(-c4ccc(F)cc4)cc23)cc1` [P-0430, 4-[6-(4-fluorophenyl)-7H-pyrrolo[2,3-d]pyrimidin-4-yl]-N-methyl-benzenesulfonamide] were, in that order, 1 to 10 µM and 0.0001 to 1 µM.
The like results for `CCS(=O)(=O)Nc1ccc(-c2ncnc3[nH]c(-c4ccc(F)cc4)cc23)cc1` [P-0431, N-[4-[6-(4-fluorophenyl)-7H-pyrrolo[2,3-d]pyrimidin-4-yl]phenyl]ethanesulfonamide] were, in that order, 0.0001 to 1 µM and 0.0001 to 1 µM.
In the case of `CS(=O)(=O)Nc1ccc(-c2ncnc3[nH]c(-c4ccc(F)cc4)cc23)cc1` [P-0432, N-[4-[6-(4-fluorophenyl)-7H-pyrrolo[2,3-d]pyrimidin-4-yl]phenyl]methanesulfonamide], the IC50 at c-kit kinase and at c-kit mutant D816V was 0.0001 to 1 µM in each case.
